Measurements: PubChem BioAssay AID743418 (The Scripps Research Institute Molecular Screening Center, 2014)
Active and inactive are the calls of the source. How the calls were made is not given here.

Target: Sphingosine 1-phosphate receptor 2 (Homo sapiens) (UniProt O95136)
Assay: agonism at human S1PR2 – cell-based, fluorescence, dose response, counter-screen for S1PR3 antagonist project, late-stage follow-up (AID 743418)
Details: S1P2-expressing cells, agonist-mode fluorescence read-out

Sphingosine 1-phosphate receptor 2 (Homo sapiens), sequence (O95136 whole entry, looked up): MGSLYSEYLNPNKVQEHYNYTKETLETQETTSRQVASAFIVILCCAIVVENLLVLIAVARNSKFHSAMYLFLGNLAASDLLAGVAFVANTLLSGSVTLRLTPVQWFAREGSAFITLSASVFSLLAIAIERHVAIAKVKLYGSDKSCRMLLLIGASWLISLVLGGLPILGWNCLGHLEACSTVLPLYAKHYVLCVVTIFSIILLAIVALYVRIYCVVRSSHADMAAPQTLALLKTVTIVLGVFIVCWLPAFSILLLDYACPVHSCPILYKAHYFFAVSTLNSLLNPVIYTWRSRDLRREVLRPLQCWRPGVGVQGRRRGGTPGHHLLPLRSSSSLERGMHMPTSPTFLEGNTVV

In the case of `O=C(NC(c1cccc(Cl)c1)c1nc(-c2ccccc2)no1)c1cc(Cl)cc(Cl)c1` (configuration not stated), the EC50 was > 50 µM (inactive).
With `O=C(NC(c1ccc(Cl)cc1)c1nc(-c2ccccc2)no1)c1cccc(Br)c1` (configuration not stated) the EC50 was > 50 µM (inactive).
With `O=C(NC(c1nc(-c2ccccc2)no1)C1CCCCC1)c1ccc(Cl)c(Cl)c1` (configuration not stated) the EC50 was > 50 µM (inactive).
In the case of `O=C(NC(c1nc(-c2ccccc2)no1)C1CCOCC1)c1ccc(Cl)c(Cl)c1` (configuration not stated), the EC50 was > 50 µM (inactive).
`O=C(NC(c1ccccc1)c1nc(-c2ccccc2)no1)c1cccc(Cl)n1` (configuration not stated) was tested, and the EC50 was > 50 µM (inactive).
With `O=C(NC(c1ccc(Cl)cc1)c1nc(-c2ccccc2)no1)c1ccc(Cl)c(Cl)c1` (configuration not stated) the EC50 was > 50 µM (inactive).
For `O=C(NC(c1ccccc1)c1nc(-c2ccccc2)no1)c1cccc(Cl)c1` (configuration not stated), the EC50 was > 50 µM (inactive).
With `O=C(NC(c1ccc(Br)cc1)c1nc(-c2ccccc2)no1)c1ccc(Cl)c(Cl)c1` (configuration not stated) the EC50 was > 50 µM (inactive).
With `O=C(NC(c1ccc(Cl)c(Cl)c1)c1nc(-c2ccccc2)no1)c1ccc(Cl)cc1` (configuration not stated) the EC50 was > 50 µM (inactive).
`O=C(NC(c1ccc(Cl)c(Cl)c1)c1nc(-c2ccccc2)no1)c1ccccc1` (configuration not stated) was tested, and the EC50 was > 50 µM (inactive).
With `O=C(NC(c1ccc(Cl)c(Cl)c1)c1nc(-c2ccccc2)no1)c1ccc(Cl)c(Cl)c1` (configuration not stated) the EC50 was > 50 µM (inactive).
With `O=C(NC(c1ccc(Cl)cc1)c1nc(-c2ccccn2)no1)c1cccc(Cl)c1` (configuration not stated) the EC50 was > 50 µM (inactive).
`COc1ccc(C(=O)NC(c2ccccc2)c2nc(-c3ccccc3)no2)cc1` (configuration not stated) was tested, and the EC50 was > 50 µM (inactive).
`O=C(NC(c1ccc(Cl)cc1)c1nc(-c2ccccc2)no1)c1cccc(Cl)c1` (configuration not stated) was tested, and the EC50 was > 50 µM (inactive).
With `O=C(NC(c1ccc(Cl)cc1)c1nc(-c2cccc(Cl)c2)no1)c1cccc(Cl)c1` (configuration not stated) the EC50 was > 50 µM (inactive).
For `CCc1ccc(C(NC(=O)c2cccc(Cl)c2)c2nc(-c3ccccc3)no2)cc1` (configuration not stated), the EC50 was > 50 µM (inactive).
`O=C(NC(c1ccccc1)c1nc(-c2ccccc2)no1)c1cccc(Br)c1` (configuration not stated) was tested, and the EC50 was > 50 µM (inactive).
For `N#Cc1ccc(C(=O)NC(c2ccc(Cl)c(Cl)c2)c2nc(-c3ccccc3)no2)cc1` (configuration not stated), the EC50 was > 50 µM (inactive).
With `Cc1ccc(C(NC(=O)c2cccc(Cl)c2)c2nc(-c3ccccc3)no2)cc1` (configuration not stated) the EC50 was > 50 µM (inactive).
With `O=C(c1cccc(Cl)c1)N(CCO)C(c1ccc(Cl)c(Cl)c1)c1nc(-c2ccccc2)no1` (configuration not stated) the EC50 was > 50 µM (inactive).
In the case of `O=C(NC(c1ccccc1)c1nc(-c2ccccc2)no1)c1ccc(Cl)cc1` (configuration not stated), the EC50 was > 50 µM (inactive).
In the case of `O=C(NC(c1ccc(Cl)cc1)c1nc(-c2ccccc2)no1)c1ccc(Cl)c(Br)c1` (configuration not stated), the EC50 was > 50 µM (inactive).
With `O=C(NC(Cc1ccccc1)c1nc(-c2ccccc2)no1)c1cccc(Cl)c1` (configuration not stated) the EC50 was > 50 µM (inactive).
With `O=C(NC(c1ccc(Cl)c(Cl)c1)c1nc(-c2ccccc2)no1)c1cccc(Cl)c1` (configuration not stated) the EC50 was > 50 µM (inactive).
In the case of `Cc1ccc(C(=O)NC(c2ccccc2)c2nc(-c3ccccc3)no2)cc1` (configuration not stated), the EC50 was > 50 µM (inactive).
`O=C(NC(c1cccc(Cl)c1)c1nc(-c2ccccc2)no1)c1ccc(Cl)c(Cl)c1` (configuration not stated) was tested, and the EC50 was > 50 µM (inactive).
For `O=C(NC(c1cccc(Cl)c1)c1nc(-c2ccccc2)no1)c1cccc(Cl)c1` (configuration not stated), the EC50 was > 50 µM (inactive).
